Numbered stars: 1 amine (or outer) side, 2 acyl side, 3 side chain; on linkers, the order of the positions; unused ones are H or OH. Side chains are listed from the residue outwards. Peptide text beside a SMILES is read from it. * marks the point of attachment. X1 = O=C(CCCCCCCCCCCCCCCc1nnn[nH]1)NS(=O)(=O)CCCC(=O)*; γGlu = O=C(O)[C@H](CCC(=O)[*:2])N[*:1]; AEEA = NCCOCCOCC(=O)O
Experiments:
[1] = Assay (X) Chemical stability assessment by RP-UPLC; format: physicochemical; conditions: pH 8.15, 14 days at 37° C. vs 5° C., 333 μM
[2] = biological target: T1, glucagon receptor (Homo sapiens, UniProt P47871); assay: Assay (I) Glucagon activity (cAMP biosensor, FLIPR); format: cell-based
T1 construct: expressed in transfected cells
T1 sequence (P47871 26-477): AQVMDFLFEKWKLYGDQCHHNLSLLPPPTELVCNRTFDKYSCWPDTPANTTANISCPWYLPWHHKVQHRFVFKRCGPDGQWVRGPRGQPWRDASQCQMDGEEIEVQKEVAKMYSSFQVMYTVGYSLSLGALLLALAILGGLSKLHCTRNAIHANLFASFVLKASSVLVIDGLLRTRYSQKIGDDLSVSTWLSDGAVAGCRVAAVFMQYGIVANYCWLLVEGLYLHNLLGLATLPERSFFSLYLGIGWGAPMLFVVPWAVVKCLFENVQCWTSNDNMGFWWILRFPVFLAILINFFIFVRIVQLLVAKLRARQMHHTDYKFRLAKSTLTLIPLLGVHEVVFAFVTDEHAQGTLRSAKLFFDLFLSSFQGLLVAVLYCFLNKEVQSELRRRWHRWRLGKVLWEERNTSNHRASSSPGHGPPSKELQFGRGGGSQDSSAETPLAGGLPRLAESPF

Structure (SMILES)	Chemical stability [Purity loss/14 days 37 C.] [1] [%]	EC50 [2] [nM]
CC(C)C[C@H](NC(=O)[C@H](Cc1ccc(O)cc1)NC(=O)[C@H](CCCCN)NC(=O)[C@H](CO)NC(=O)[C@H](Cc1ccc(O)cc1)NC(=O)[C@H](CC(=O)O)NC(=O)[C@H](CO)NC(=O)[C@@H](NC(=O)[C@H](Cc1ccccc1)NC(=O)[C@@H](NC(=O)CNC(=O)[C@H](CCC(N)=O)NC(=O)[C@H](CO)NC(=O)[C@@H](N)Cc1c[nH]cn1)[C@@H](C)O)[C@@H](C)O)C(=O)N[C@@H](CC(=O)O)C(=O)N[C@@H](C)C(=O)N[C@@H](CCCNC(=N)N)C(=O)N[C@@H](CCCNC(=N)N)C(=O)N[C@@H](C)C(=O)N[C@@H](CCC(N)=O)C(=O)N[C@@H](CC(=O)O)C(=O)N[C@@H](Cc1ccccc1)C(=O)N[C@H](C(=O)N[C@@H](CCCCNC(=O)CC[C@H](NC(=O)CC[C@H](NC(=O)COCCOCCNC(=O)COCCOCCNC(=O)CC[C@H](NC(=O)CCCCCCCCCCCCCCCCC(=O)O)C(=O)O)C(=O)O)C(=O)O)C(=O)N[C@@H](Cc1c[nH]c2ccccc12)C(=O)N[C@@H](CC(C)C)C(=O)N[C@@H](CC(C)C)C(=O)N[C@@H](CO)C(=O)N[C@H](C(=O)O)[C@@H](C)O)C(C)C [Example 43, N^ε24-[(4S)-4-carboxy-4-[[(4S)-4-carboxy-4-[[2-[2-[2-[[2-[2-[2-[[(4S)-4-carboxy-4-(17-carboxyheptadecanoylamino)butanoyl]amino]ethoxy]ethoxy]acetyl]amino]ethoxy]ethoxy]acetyl]amino]butanoyl]amino]butanoyl]-[Ala16,Lys24,Leu27,Ser28]-Glucagon]	7.6	0.049
CC(C)C[C@H](NC(=O)[C@H](CC(=O)O)NC(=O)[C@H](CC(C)C)NC(=O)[C@H](Cc1ccc(O)cc1)NC(=O)[C@H](CCCNC(=N)N)NC(=O)[C@H](CO)NC(=O)[C@H](Cc1ccc(O)cc1)NC(=O)[C@H](CC(=O)O)NC(=O)[C@H](CO)NC(=O)[C@@H](NC(=O)[C@H](Cc1ccccc1)NC(=O)[C@@H](NC(=O)CNC(=O)[C@H](CCC(N)=O)NC(=O)[C@H](CO)NC(=O)[C@@H](N)Cc1c[nH]cn1)[C@@H](C)O)[C@@H](C)O)C(=O)N[C@@H](CCCNC(=N)N)C(=O)N[C@@H](CCCNC(=N)N)C(=O)N[C@@H](C)C(=O)N[C@@H](CCC(N)=O)C(=O)N[C@@H](CC(=O)O)C(=O)N[C@@H](Cc1ccccc1)C(=O)N[C@H](C(=O)N[C@@H](CCCCNC(=O)CC[C@H](NC(=O)CC[C@H](NC(=O)COCCOCCNC(=O)COCCOCCNC(=O)CCCS(=O)(=O)NC(=O)CCCCCCCCCCCCCCCc1nnn[nH]1)C(=O)O)C(=O)O)C(=O)N[C@@H](Cc1c[nH]c2ccccc12)C(=O)N[C@@H](CC(C)C)C(=O)N[C@@H](CC(C)C)C(=O)N[C@@H](CO)C(=O)N[C@H](C(=O)O)[C@@H](C)O)C(C)C [Example 68, N^ε24-[(4S)-4-carboxy-4-[[(4S)-4-carboxy-4-[[2-[2-[2-[[2-[2-[2-[4-[16-(1H-tetrazol-5-yl)hexadecanoylsulfannoyl]butanoylamino]ethoxy]ethoxy]acetyl]amino]ethoxy]ethoxy]acetyl]amino]butanoyl]amino]butanoyl]-[Arg12, Leu16, Lys24, Leu27,Ser28]-Glucagon] (H-HSQGTFTSDYSRYLDLRRAQDFVK([γGlu-γGlu-AEEA-AEEA-X1])WLLST-OH)	5.6	0.357

Source: patent US9486506B2 (Novo Nordisk A/S, priority 2011, dated 2016)
